For assay [1], the target named is T1, Sodium-dependent dopamine transporter (Rattus norvegicus, UniProt P23977). The experiment in a line: Inhibition of DAT in Sprague-Dawley rat synaptosomes assessed as reduction in [3H]dopamine uptake by liquid scintillation counting method. The format is subcellular.
Assay [2] concerns Mus musculus. The experiment in a line: Anxiolytic-like activity in iv dosed ICR mouse assessed as increase in marbles left uncovered measured after 30 mins by marble burying assay. The format is functional. To be noted: 0.5 h.
Assay [3] deals with T2, Alpha-2A adrenergic receptor (Homo sapiens, UniProt P08913).
T2 sequence (P08913 whole entry): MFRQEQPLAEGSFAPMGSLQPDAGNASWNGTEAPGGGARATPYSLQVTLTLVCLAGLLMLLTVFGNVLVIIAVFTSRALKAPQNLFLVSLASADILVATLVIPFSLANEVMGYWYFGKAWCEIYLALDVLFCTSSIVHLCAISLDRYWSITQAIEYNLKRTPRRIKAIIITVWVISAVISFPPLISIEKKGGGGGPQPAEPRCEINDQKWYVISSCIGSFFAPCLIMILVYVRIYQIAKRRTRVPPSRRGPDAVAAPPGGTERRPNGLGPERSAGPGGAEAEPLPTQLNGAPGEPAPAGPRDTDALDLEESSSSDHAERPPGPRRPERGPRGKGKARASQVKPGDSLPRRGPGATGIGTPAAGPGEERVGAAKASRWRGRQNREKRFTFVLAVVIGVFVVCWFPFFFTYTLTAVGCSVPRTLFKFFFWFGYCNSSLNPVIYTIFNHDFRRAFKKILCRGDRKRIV
The experiment in a line: Binding affinity to alpha-2A receptor (unknown origin).

Assay [4] deals with T3, Alpha-2C adrenergic receptor (Homo sapiens, UniProt P18825).
T3 sequence (P18825 whole entry): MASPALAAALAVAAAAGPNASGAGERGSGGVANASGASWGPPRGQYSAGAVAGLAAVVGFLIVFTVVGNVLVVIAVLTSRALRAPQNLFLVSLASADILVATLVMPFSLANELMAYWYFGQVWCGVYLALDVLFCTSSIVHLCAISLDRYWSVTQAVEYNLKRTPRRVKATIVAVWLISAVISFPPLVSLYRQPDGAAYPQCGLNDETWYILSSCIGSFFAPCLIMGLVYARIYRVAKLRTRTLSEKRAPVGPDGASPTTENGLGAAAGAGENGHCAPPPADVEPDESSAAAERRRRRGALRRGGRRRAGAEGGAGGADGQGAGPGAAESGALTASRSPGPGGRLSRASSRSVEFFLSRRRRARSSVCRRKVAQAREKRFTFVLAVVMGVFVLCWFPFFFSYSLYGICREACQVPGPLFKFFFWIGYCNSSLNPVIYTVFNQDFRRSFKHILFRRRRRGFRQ
The experiment in a line: Binding affinity to alpha-2C receptor (unknown origin).

In assay [5] the target is T4, Alpha-2B adrenergic receptor (Homo sapiens, UniProt P18089).
T4 sequence (P18089 whole entry): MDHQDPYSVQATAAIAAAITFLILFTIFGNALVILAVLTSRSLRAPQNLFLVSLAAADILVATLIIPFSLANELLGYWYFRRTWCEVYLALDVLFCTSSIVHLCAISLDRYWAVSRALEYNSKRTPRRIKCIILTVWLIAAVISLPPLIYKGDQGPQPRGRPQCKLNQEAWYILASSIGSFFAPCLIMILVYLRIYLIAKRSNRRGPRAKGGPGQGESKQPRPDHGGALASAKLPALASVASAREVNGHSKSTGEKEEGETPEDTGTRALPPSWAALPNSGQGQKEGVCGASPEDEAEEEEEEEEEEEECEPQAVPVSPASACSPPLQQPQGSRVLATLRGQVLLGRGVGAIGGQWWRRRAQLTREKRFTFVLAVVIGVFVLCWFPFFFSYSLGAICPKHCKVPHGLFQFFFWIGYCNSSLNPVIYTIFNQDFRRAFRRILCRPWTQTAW
The experiment in a line: Binding affinity to alpha-2B receptor (unknown origin).

Assay [6] addresses 5-hydroxytryptamine receptor 6 (Homo sapiens, UniProt P50406). The experiment in a line: Displacement of [3H]LSD from human 5HT6 receptor expressed in HEK293 cells. It counts as cell-based. A general note: Loss of bound radioactivity is the signal in a displacement assay; it reports binding, not function.
Assay [7] addresses Sodium-dependent serotonin transporter (Rattus norvegicus, UniProt P31652). The experiment in a line: Activity at SERT in rat synaptosomes assessed as release of [3H]HT after 5 mins by liquid scintillation counting method. The format is subcellular.
Assay [8] can be described thus: Activity at NET in rat synaptosomes assessed as release of [3H]NE after 30 mins by liquid scintillation counting method. The format is subcellular.
Assay [9] concerns the target T1, Sodium-dependent dopamine transporter. The experiment in a line: Activity at DAT in rat synaptosomes assessed as release of [3H]DA after 5 mins by liquid scintillation counting method. It counts as subcellular.
Assay [10] concerns the target T5, 5-hydroxytryptamine receptor 2A (Rattus norvegicus, UniProt P14842). The experiment in a line: Displacement of [3H]ketanserin from 5HT2A in Sprague-Dawley rat frontal cortex membranes measured after 15 mins by scintillation counting method. On the set-up: species or system Membrane.
In assay [11] the target is T5, 5-hydroxytryptamine receptor 2A. The experiment in a line: Displacement of [3H]ketanserin from 5HT2A in Sprague-Dawley rat cortex membranes measured after 15 mins. The format is cell membranes.
The species named for assay [12] is Rattus norvegicus. The experiment in a line: Induction of stimulus generalization in rat trained to discriminate PMMA assessed as appropriate responding level to training drug by two lever method. The format is functional. Conditions: Rattus norvegicus.
The species named for assay [13] is Rattus norvegicus. The experiment in a line: Induction of stimulus generalization in Sprague-Dawley rat trained to discriminate S(-)MCAT assessed as appropriate responding level to training drug by two lever method. It counts as functional.
For assay [14], the species on record is Rattus norvegicus. The experiment in a line: Induction of stimulus generalization in Sprague-Dawley rat trained to discriminate TDIQ assessed as appropriate responding level to training drug by two lever method. It counts as functional.
For assay [15], the species on record is Rattus norvegicus. The experiment in a line: Induction of stimulus generalization in rat trained to discriminate S(+)methamphetamine assessed as appropriate responding level to training drug by two lever method. The format is functional.
The species entered for assay [16] is Rattus norvegicus. The experiment in a line: Induction of stimulus generalization in Sprague-Dawley rat trained to discriminate S(+)AMPH assessed as appropriate responding level to training drug by two lever method. It counts as functional.
The subject of assay [17] is Rattus norvegicus. The experiment in a line: In vivo agonist activity at 5HT2A in ip dosed DOM-trained Sprague-Dawley rat assessed as increase in discriminative stimulus pretreated before testing. The format is functional.
The test system of assay [18] is Rhesus monkey. The experiment in a line: In vivo agonist activity at 5HT2A in DOM-trained rhesus monkey assessed as increase in discriminative stimulus administered subcutaneously pretreated before testing. Conditions: Macaca mulatta, sc. It counts as functional.
Assay [19] concerns the target T5, 5-hydroxytryptamine receptor 2A. The experiment in a line: Displacement of [125I]DOI from rat cortex 5HT2A after 1 hr by beta scintillation counting method.
The species named for assay [20] is Rattus norvegicus. The experiment in a line: Induction of stimulus generalization in rat trained to discriminate (-)ephedrine assessed as appropriate responding level to training drug by two lever method. It counts as functional.
Assay [21] concerns the target Trace amine-associated receptor 1 (Rattus norvegicus, UniProt Q923Y9). The experiment in a line: Agonist activity at rat N-terminal FLAG-tagged TAAR1 expressed in HEK293 cells assessed as [3H]cAMP accumulation measured after 1 hr. The format is functional, cell-based. (cAMP levels reflect the balance of adenylyl cyclase and phosphodiesterase activity.)
Assay [22] concerns the target T6, 5-hydroxytryptamine receptor 1A (Homo sapiens, UniProt P08908).
T6 sequence (P08908 whole entry): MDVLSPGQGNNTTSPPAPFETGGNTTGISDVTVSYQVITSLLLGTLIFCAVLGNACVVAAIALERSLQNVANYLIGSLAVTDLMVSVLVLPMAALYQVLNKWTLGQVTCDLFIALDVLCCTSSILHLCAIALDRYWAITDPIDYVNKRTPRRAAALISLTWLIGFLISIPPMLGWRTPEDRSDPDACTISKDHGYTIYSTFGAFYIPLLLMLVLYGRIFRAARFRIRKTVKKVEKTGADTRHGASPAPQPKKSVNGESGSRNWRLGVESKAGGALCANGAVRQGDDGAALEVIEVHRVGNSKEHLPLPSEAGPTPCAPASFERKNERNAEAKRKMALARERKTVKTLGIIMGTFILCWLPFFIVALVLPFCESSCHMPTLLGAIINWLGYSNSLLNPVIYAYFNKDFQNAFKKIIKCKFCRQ
The experiment in a line: Binding affinity to 5-HT1A receptor (unknown origin).

In assay [23] the target is T5, 5-hydroxytryptamine receptor 2A. The experiment in a line: Displacement of [125I](+/-)DOI from rat 5HT2A after 1 hr by beta scintillation counting method.

Where only a bound is given, the exact number is not on record here.

A word on the IC50: it is the concentration at which inhibition is half-maximal. By ED50 is commonly meant the dose that gives a 50% effect, or the effect in half of the subjects. The Ki is a dissociation constant, usually derived from enzyme kinetics or from competition with a known ligand. The EC50 is the midpoint of the concentration-response curve.

T5 sequence (P14842 whole entry): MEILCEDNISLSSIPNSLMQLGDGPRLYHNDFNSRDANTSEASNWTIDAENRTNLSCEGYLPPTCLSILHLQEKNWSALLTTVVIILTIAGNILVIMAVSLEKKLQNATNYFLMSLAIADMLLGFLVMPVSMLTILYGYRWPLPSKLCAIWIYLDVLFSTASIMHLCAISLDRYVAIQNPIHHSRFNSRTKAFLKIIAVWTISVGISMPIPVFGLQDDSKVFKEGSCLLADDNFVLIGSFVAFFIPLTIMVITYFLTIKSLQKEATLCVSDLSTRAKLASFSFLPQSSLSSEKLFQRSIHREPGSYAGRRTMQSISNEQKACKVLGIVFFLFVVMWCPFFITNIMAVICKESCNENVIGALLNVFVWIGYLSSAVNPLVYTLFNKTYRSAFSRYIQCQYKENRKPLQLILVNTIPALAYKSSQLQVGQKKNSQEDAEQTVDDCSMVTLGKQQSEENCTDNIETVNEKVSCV
T1 sequence (P23977 whole entry): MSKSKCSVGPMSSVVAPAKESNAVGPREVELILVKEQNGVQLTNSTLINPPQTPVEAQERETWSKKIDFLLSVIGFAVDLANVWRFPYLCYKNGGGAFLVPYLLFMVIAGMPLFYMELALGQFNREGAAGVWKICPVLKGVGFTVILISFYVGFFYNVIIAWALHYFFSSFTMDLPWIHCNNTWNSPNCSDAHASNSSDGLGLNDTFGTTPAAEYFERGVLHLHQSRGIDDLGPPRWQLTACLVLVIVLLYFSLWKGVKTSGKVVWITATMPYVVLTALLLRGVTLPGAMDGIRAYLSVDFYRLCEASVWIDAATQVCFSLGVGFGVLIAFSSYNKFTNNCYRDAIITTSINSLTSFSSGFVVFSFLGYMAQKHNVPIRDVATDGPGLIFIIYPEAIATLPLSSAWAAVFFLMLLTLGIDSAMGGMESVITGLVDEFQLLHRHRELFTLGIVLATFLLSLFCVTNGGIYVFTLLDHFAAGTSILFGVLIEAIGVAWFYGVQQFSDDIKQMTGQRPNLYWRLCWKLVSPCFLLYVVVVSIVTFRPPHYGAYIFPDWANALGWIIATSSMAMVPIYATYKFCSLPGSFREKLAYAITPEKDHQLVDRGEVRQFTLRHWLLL
Sequence of 5-hydroxytryptamine receptor 6 (P50406 whole entry): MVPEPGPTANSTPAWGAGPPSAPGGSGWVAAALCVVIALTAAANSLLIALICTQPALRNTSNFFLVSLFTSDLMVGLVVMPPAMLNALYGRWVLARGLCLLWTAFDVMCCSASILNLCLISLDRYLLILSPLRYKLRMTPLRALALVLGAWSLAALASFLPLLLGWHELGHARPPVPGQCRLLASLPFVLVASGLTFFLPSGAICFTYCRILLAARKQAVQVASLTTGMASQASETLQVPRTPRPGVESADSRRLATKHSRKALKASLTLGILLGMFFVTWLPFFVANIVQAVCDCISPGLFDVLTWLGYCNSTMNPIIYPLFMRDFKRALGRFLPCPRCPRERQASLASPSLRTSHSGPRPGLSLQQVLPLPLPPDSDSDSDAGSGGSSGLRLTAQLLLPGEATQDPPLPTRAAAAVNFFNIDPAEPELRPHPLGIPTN
Sequence of Sodium-dependent serotonin transporter (P31652 whole entry): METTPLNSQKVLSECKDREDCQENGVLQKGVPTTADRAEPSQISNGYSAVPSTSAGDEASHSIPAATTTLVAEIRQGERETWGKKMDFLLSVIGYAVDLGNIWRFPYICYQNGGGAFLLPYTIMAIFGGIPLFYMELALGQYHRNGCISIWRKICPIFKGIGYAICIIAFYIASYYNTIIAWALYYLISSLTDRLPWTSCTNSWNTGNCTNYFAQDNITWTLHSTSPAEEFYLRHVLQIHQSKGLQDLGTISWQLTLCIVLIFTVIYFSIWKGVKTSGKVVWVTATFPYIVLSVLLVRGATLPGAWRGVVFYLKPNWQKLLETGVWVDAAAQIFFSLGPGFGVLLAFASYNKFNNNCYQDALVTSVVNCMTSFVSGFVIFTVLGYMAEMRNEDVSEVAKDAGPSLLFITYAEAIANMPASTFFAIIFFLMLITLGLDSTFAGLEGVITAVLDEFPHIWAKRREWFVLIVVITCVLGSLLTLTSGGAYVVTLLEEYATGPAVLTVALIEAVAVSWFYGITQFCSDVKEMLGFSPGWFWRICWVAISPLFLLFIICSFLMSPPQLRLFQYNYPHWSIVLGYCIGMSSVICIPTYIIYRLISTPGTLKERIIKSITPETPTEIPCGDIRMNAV
Sequence of Trace amine-associated receptor 1 (Q923Y9 whole entry): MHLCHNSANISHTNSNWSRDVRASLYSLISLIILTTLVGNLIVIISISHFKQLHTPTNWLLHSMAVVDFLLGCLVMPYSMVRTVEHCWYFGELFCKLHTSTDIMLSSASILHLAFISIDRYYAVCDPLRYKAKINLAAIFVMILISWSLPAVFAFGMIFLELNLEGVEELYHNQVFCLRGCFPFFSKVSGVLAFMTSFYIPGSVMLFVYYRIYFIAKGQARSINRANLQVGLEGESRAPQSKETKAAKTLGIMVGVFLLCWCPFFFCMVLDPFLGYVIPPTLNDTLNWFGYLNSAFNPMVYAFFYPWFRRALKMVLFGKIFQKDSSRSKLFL

As for `CCC[C@@H](C(=O)c1ccc2c(c1)OCO2)N1CCCC1`, in assay [1], the half-maximal inhibitory concentration (IC50) was 2.1 nM.

Take `c1c2c(cc3c1OCO3)CNCC2`: the median effective dose (ED50) in [2] is 0.2 mg/kg. Further, the inhibition constant Ki in assay [3], in assay [4] and in [5] was < 100 nM throughout.

In turn, `NCCc1ccc(S(=O)(=O)n2ccc3ccccc32)cc1` registered a Ki in assay [6] of 2.5 nM.

With `CN[C@H](C)Cc1ccc2c(c1)OCO2`, the results for the EC50 in assay [7], in [8] and in assay [9] were 340 nM, 560 nM and 3700 nM, respectively. Moreover, the Ki in [10] came out at 3310 nM.

With `COc1cc(CC(C)N(C)C)c(OC)cc1Br` (centres undefined), the inhibition constant Ki in assay [11] turned out to be 380 nM.

Consider `CN[C@@H](C)Cc1ccc2c(c1)OCO2`, for which the ED50 in assay [12] amounted to 0.48 mg/kg. The half-maximal effective concentration (EC50) in assay [7] was 74 nM; in assay [8], 136 nM; in assay [9] it was 142 nM. This compound also showed a Ki in assay [10] of 15800 nM.

For the compound `COC(=O)[C@H]1[C@@H](OC(=O)c2ccccc2)C[C@@H]2CC[C@H]1N2C` [COCAINE], the ED50 in assay [13] is 1.47 mg/kg; in assay [14], 1.5 mg/kg; in assay [15], 3.68 to 6.68 mg/kg; in assay [16], 5.63 mg/kg.

With `COc1cc(C[C@@H](C)N)c(OC)cc1I`, the ED50 in assay [17] worked out at 0.2 mg/kg; in assay [18] it was 0.04 mg/kg.

Consider `C[C@H](N)Cn1ncc2ccc3c(c21)CCCO3`, for which the results for the ED50 in [17] and in assay [18] were 0.05 mg/kg and 0.04 mg/kg, respectively. In assay [19], this compound registered a Ki of 0.13 nM.

Compound `NC1CCc2c(cccc2NS(=O)(=O)c2ccccc2)C1` (centres undefined) had an inhibition constant Ki in [6] of 49 nM.

As for `CN[C@H](C)Cc1ccccc1`, the ED50 in assay [20] stood at 0.9 mg/kg; in assay [15], 1.61 mg/kg.

As to `NCCc1ccccc1` [PHENETHYLAMINE], the EC50 in [21] came out at 240 nM.

Turning to `CCCN(CCC)CCc1ccccc1O`, the affinity in assay [22] corresponds to a Ki of 400 nM.

As to `CCCNCCc1ccccc1O`, the Ki in assay [22] was > 1000 nM.

Take `CN[C@@H](C)[C@H](O)c1ccccc1` [EPHEDRINE]: the 50% effective dose (ED50) in assay [20] came out at 0.8 mg/kg; in assay [15] it was 13.1 mg/kg.

On to `COc1cc([C@@H](OC)[C@H](C)N)c(OC)cc1Br`, for which the inhibition constant (Ki) in [23] is 0.8 nM.

Values taken from ChEMBL document CHEMBL4007451, “The 2014 Philip S. Portoghese Medicinal Chemistry Lectureship: The "Phenylalkylaminome" with a Focus on Selected Drugs of Abuse” (J Med Chem, 2017).
